From ChEMBL document CHEMBL1128408, “Further evidence supporting the importance of and the restrictions on a carbon-centered radical for high antimalarial activity of 1,2,4-trioxanes like artemisinin” (J Med Chem, 1995) come the findings set out here.

Broadly, the IC50 is the concentration that inhibits the measured activity by half.

Values after ≈ are worked out from the molar mass of the structure shown.

One assay relates to Plasmodium falciparum. The assay can be described thus: In vitro inhibitory activity against Chloroquine-sensitive Plasmodium falciparum NF54 as [3H]hypoxanthine incorporation.
Details: not given
It counts as functional, organism-based.
`CO[C@H]1O[C@@]2(C)CC[C@H]3CCC[C@@H](CCO)[C@]31OO2` yielded a 50% inhibitory concentration (IC50) of 0.034 µg/mL (≈ 0.125 µM).

Still in this assay, the particulars now being: Plasmodium falciparum; read-out: IC50.
In the case of `CO[C@H]1O[C@]2(C)OO[C@]13[C@H](CCO)CCC[C@@H]3C[C@@H]2C`, the IC50 stood at 0.36 µg/mL (≈ 1.26 µM).
With `CO[C@H]1O[C@]2(C)OO[C@]13[C@H](CCO)CCC[C@@H]3C[C@H]2C`, the IC50 stood at 0.0022 µg/mL (≈ 0.00768 µM).
Take `CO[C@H]1O[C@]2(C)OO[C@]13CCCC[C@@H]3C[C@H]2Cc1ccccc1`: the IC50 was 0.098 µg/mL (≈ 0.308 µM).
Turning to `CO[C@H]1O[C@@]2(C)CC[C@H]3CCC[C@@H](CCO)[C@]31OO2`, the IC50 is 0.034 µg/mL (≈ 0.125 µM).
Turning to `CO[C@H]1O[C@]2(C)OO[C@]13[C@H](CCO)CCC[C@@H]3C[C@H]2C[Si](C)(C)C`, the half-inhibitory concentration (IC50) came to 0.086 µg/mL (≈ 0.24 µM).
As to `CO[C@H]1O[C@]2(C)OO[C@]13CCCC[C@@H]3C[C@H]2c1ccccc1`, the IC50 came out at 0.61 µg/mL (≈ 2 µM).
`CO[C@H]1O[C@@]2(C)CC[C@H]3CCCC[C@]31OO2`: the IC50 worked out at 0.22 µg/mL (≈ 0.964 µM).
On to `CO[C@H]1O[C@]2(C)OO[C@]13[C@H](CCO)CCC[C@@H]3C[C@@H]2C[Si](C)(C)C`, for which the IC50 is more than 1 µg/mL.
For the compound `CO[C@H]1O[C@]2(C)OO[C@]13[C@H](CCO)CCC[C@@H]3C[C@@H]2Cc1ccccc1`, the IC50 came out at 0.6 µg/mL (≈ 1.66 µM).
For the compound `CO[C@H]1O[C@]2(C)OO[C@]13[C@H](CCO)CCC[C@@H]3C[C@H]2Cc1ccccc1`, the half-inhibitory concentration (IC50) amounted to 0.003 µg/mL (≈ 0.00828 µM).
Consider `C[C@@H]1CC[C@H]2[C@@H](C)C(=O)O[C@@H]3O[C@@]4(C)CC[C@@H]1[C@]32OO4` [ARTEMISININ], for which the IC50 came to 0.003 µg/mL (≈ 0.0106 µM).
